From ChEMBL document CHEMBL4828765, “Design and Development of a Chemical Probe for Pseudokinase Ca2+/calmodulin-Dependent Ser/Thr Kinase” (J Med Chem, 2021)
Active and inactive are the calls of the source. No cut-off for these calls is given here.

Assays:
[1] = molecular target: T1, Casein kinase I isoform epsilon (Homo sapiens, UniProt P49674); test: Binding affinity to CSNK1E (unknown origin) assessed as change in melting temperature by SYPRO orange dye based DSF assay
Target sequence in this assay (P49674 whole entry, looked up, canonical isoform): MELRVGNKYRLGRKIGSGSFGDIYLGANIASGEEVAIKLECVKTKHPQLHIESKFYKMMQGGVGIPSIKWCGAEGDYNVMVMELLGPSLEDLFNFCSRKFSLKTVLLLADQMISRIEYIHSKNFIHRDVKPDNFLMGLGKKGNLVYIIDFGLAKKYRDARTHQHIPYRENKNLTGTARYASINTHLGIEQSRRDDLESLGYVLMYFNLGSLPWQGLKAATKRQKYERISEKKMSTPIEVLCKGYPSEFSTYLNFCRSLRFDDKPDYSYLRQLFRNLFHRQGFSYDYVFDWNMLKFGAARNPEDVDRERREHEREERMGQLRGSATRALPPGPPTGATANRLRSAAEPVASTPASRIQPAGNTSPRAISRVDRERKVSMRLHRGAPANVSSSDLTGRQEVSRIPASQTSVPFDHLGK

[2] = molecular target: T2, Tyrosine-protein kinase Mer (Homo sapiens) (UniProt Q12866); test: Binding affinity to MERTK (571 to 864 residue) (unknown origin) expressed in Escherichia coli Rosetta cells assessed as change in melting temperature by SYPRO orange dye based DSF assay
T2 sequence (whole entry): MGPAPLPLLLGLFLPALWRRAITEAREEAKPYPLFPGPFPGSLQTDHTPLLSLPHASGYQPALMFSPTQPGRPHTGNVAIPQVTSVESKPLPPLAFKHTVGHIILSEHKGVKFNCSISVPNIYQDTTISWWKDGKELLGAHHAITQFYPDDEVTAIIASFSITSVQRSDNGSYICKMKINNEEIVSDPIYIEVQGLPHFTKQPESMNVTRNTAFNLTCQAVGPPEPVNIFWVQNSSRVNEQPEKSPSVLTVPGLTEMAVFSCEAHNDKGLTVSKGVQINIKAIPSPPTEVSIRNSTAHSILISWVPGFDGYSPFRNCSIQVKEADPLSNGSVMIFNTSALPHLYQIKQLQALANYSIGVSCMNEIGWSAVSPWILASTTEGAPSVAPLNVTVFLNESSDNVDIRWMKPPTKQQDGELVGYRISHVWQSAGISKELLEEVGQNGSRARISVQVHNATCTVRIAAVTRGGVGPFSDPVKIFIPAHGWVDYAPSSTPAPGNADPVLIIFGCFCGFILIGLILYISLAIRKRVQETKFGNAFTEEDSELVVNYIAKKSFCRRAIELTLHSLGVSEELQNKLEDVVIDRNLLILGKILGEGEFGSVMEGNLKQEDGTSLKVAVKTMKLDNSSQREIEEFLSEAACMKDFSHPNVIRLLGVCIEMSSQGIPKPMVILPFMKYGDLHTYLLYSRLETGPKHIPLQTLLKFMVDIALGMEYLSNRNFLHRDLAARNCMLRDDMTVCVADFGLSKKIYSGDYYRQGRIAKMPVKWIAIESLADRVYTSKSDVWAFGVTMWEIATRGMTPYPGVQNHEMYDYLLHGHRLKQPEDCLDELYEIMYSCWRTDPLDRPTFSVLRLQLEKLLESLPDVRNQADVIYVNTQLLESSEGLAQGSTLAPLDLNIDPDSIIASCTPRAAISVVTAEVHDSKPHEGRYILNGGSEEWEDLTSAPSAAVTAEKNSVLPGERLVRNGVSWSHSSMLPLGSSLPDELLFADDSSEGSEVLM

[3] = molecular target: T3, Tyrosine-protein kinase receptor TYRO3 (Homo sapiens, UniProt Q06418); test: Inhibition of tracer K5 binding to NanoLuc-fused TYRO3 (unknown origin) expressed in HEK293T cells measured after 2 hrs by NanoBRET assay; format: cell-based
T3 sequence (Q06418 whole entry): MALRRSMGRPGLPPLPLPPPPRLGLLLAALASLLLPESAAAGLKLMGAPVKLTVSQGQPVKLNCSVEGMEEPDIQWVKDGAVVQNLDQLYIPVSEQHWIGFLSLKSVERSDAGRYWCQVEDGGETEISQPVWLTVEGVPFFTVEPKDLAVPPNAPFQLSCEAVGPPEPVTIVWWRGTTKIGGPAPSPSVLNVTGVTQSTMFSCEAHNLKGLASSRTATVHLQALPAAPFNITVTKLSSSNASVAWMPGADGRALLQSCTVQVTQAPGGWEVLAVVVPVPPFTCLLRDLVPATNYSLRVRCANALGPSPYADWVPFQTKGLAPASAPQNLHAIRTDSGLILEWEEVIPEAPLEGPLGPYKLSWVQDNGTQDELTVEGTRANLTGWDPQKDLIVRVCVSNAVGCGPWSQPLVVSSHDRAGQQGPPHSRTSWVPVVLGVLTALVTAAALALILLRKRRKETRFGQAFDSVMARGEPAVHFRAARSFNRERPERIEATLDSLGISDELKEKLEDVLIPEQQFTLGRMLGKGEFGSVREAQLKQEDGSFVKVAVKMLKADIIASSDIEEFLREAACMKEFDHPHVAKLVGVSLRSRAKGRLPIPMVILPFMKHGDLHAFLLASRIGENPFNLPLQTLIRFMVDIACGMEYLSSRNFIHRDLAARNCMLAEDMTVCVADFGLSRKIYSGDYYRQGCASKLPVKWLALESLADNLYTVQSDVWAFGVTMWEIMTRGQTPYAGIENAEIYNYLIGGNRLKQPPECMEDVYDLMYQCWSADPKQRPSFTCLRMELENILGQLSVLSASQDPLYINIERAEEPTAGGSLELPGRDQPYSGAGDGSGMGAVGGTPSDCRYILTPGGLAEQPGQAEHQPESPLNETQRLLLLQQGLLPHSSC

Homo sapiens = species on record: Homo sapiens; test: Binding affinity to MERTK-AXL mutant (unknown origin) expressed in Escherichia coli Rosetta cells assessed as change in melting temperature by SYPRO orange dye based DSF assay
[4] = molecular target: T4, Tyrosine-protein kinase Mer (Homo sapiens, UniProt Q12866); test: Inhibition of tracer K5 binding to NanoLuc-fused MERTK (unknown origin) expressed in HEK293T cells measured after 2 hrs by NanoBRET assay; format: cell-based
T4 sequence (Q12866 whole entry): T2 sequence (whole entry)

[5] = molecular target: T5, Tyrosine-protein kinase receptor UFO (Homo sapiens, UniProt P30530); test: Inhibition of tracer K5 binding to NanoLuc-fused AXL (unknown origin) expressed in HEK293T cells measured after 2 hrs by NanoBRET assay; format: cell-based
T5 sequence (P30530 whole entry): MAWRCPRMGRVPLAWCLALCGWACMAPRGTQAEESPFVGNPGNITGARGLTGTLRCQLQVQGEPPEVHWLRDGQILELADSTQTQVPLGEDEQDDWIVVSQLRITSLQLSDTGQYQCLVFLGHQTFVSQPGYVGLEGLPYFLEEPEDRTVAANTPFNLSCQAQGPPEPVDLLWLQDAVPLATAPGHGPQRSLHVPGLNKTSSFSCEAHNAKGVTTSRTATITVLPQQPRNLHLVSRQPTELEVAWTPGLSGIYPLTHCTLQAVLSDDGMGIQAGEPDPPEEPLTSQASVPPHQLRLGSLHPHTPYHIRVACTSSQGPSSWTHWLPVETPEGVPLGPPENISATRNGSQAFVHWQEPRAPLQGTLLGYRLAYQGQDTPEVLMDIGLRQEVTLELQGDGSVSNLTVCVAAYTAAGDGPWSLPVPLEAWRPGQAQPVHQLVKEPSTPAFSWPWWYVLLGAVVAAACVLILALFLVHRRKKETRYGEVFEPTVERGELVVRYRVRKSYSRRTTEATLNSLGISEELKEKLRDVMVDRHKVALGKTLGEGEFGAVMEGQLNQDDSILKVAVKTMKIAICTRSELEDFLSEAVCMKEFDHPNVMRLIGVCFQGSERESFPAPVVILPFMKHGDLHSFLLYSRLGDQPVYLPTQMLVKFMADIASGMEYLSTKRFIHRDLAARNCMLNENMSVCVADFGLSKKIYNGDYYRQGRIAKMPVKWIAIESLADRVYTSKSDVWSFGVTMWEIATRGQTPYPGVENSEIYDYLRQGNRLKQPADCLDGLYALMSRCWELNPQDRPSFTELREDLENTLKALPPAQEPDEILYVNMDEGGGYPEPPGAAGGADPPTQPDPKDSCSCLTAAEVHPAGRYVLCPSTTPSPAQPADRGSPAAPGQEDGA

[6] = molecular target: T6, Tyrosine-protein kinase ABL1 (Homo sapiens, UniProt P00519); test: Inhibition of tracer K5 binding to NanoLuc-fused ABL1 (unknown origin) expressed in HEK293T cells measured after 2 hrs by NanoBRET assay; format: cell-based
[7] = molecular target: T6, Tyrosine-protein kinase ABL1
Description: Binding affinity to non-phosphorylated ABL1 (unknown origin) assessed as change in melting temperature by SYPRO orange dye based DSF assay

P19 [8] = test: Induction of cell death in mouse P19 cell differentiation model at 2 uM preincubated for 4 days followed by cytosine arabinoside addition measured after 6 hrs by immunostaining based microscopic analysis; format: functional; details: time 102.0 hrs
P19 [9] = test: Induction of cell death in mouse P19 cell differentiation model at 1 uM preincubated for 4 days followed by cytosine arabinoside addition measured after 6 hrs by immunostaining based microscopic analysis; format: functional; details: time 102.0 hrs
P19 [10] = test: Induction of beta3-tubulin abundance in mouse P19 cells at 1 uM preincubated for 4 days followed by cytosine arabinoside addition measured after 6 hrs by immunostaining based microscopic analysis; format: functional, cell-based; details: time 4.0 day
[11] = molecular target: T1, Casein kinase I isoform epsilon; test: Binding affinity to human CSNK1E at 1 uM by KINOMEscan scanMAX assay relative to control
Target sequence in this assay (P49674 whole entry, looked up, canonical isoform): as the sequence (P49674 whole entry, looked up, canonical isoform) above

[12] = molecular target: T2, Tyrosine-protein kinase Mer (Homo sapiens); test: Binding affinity to human MERTK at 1 uM by KINOMEscan scanMAX assay relative to control
[13] = molecular target: T6, Tyrosine-protein kinase ABL1; test: Binding affinity to human non-phosphorylated ABL1 at 1 uM by KINOMEscan scanMAX assay relative to control
[14] = molecular target: T7, Ribosomal protein S6 kinase alpha-2 (Homo sapiens, UniProt Q15349); test: Binding affinity to human N-terminal RSK3 kinase domain 1 at 1 uM by KINOMEscan scanMAX assay relative to control
[15] = molecular target: T8, Mitogen-activated protein kinase kinase kinase 2 (Homo sapiens) (UniProt Q9Y2U5); test: Binding affinity to human MAP3K2 at 1 uM by KINOMEscan scanMAX assay relative to control
T8 sequence (whole entry): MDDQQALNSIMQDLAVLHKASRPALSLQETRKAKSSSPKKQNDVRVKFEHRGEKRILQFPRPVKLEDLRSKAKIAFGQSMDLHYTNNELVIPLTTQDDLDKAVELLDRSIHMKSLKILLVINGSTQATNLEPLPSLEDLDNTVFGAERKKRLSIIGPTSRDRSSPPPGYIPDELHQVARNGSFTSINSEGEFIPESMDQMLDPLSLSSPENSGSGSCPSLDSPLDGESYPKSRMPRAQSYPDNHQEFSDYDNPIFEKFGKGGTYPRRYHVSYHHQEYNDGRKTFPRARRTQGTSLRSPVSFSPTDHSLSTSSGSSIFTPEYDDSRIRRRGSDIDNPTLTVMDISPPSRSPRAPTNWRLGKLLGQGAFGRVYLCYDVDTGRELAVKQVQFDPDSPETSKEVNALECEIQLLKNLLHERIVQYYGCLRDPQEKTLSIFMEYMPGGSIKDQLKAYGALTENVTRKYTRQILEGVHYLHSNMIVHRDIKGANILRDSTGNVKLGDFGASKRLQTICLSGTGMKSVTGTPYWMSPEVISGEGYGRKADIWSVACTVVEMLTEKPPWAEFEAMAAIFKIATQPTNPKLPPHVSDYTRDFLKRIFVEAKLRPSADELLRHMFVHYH

[16] = molecular target: Hepatocyte growth factor receptor (Homo sapiens) (UniProt P08581); test: Binding affinity to human MET at 1 uM by KINOMEscan scanMAX assay relative to control
[17] = molecular target: Tyrosine-protein kinase receptor UFO (Homo sapiens) (UniProt P30530); test: Binding affinity to human AXL at 1 uM by KINOMEscan scanMAX assay relative to control
[18] = molecular target: T1, Casein kinase I isoform epsilon; test: Binding affinity to human CSNK1E by KINOMEscan scanMAX assay
Target sequence in this assay (P49674 whole entry, canonical isoform): as the sequence (P49674 whole entry, looked up, canonical isoform) above

[19] = molecular target: T4, Tyrosine-protein kinase Mer; test: Binding affinity to human MERTK by KINOMEscan scanMAX assay
[20] = molecular target: T6, Tyrosine-protein kinase ABL1; test: Binding affinity to human non-phosphorylated ABL1 by KINOMEscan scanMAX assay
[21] = molecular target: T7, Ribosomal protein S6 kinase alpha-2; test: Binding affinity to human N-terminal RSK3 kinase domain 1 by KINOMEscan scanMAX assay
[22] = molecular target: T9, Mitogen-activated protein kinase kinase kinase 2 (Homo sapiens, UniProt Q9Y2U5); test: Binding affinity to human MAP3K2 by KINOMEscan scanMAX assay
T9 sequence (Q9Y2U5 whole entry): T8 sequence (whole entry)

[23] = molecular target: Tyrosine-protein kinase receptor UFO (Homo sapiens) (UniProt P30530); test: Binding affinity to AXL (unknown origin) assessed as change in melting temperature by SYPRO orange dye based DSF assay
[24] = molecular target: T1, Casein kinase I isoform epsilon; test: Inhibition of tracer K5 binding to NanoLuc-fused CSNK1E (unknown origin) expressed in HEK293T cells measured after 2 hrs by NanoBRET assay; format: cell-based
Target sequence in this assay (P49674 whole entry, canonical isoform): as the sequence (P49674 whole entry, looked up, canonical isoform) above

T6 sequence (P00519 whole entry, the tested form may be a part): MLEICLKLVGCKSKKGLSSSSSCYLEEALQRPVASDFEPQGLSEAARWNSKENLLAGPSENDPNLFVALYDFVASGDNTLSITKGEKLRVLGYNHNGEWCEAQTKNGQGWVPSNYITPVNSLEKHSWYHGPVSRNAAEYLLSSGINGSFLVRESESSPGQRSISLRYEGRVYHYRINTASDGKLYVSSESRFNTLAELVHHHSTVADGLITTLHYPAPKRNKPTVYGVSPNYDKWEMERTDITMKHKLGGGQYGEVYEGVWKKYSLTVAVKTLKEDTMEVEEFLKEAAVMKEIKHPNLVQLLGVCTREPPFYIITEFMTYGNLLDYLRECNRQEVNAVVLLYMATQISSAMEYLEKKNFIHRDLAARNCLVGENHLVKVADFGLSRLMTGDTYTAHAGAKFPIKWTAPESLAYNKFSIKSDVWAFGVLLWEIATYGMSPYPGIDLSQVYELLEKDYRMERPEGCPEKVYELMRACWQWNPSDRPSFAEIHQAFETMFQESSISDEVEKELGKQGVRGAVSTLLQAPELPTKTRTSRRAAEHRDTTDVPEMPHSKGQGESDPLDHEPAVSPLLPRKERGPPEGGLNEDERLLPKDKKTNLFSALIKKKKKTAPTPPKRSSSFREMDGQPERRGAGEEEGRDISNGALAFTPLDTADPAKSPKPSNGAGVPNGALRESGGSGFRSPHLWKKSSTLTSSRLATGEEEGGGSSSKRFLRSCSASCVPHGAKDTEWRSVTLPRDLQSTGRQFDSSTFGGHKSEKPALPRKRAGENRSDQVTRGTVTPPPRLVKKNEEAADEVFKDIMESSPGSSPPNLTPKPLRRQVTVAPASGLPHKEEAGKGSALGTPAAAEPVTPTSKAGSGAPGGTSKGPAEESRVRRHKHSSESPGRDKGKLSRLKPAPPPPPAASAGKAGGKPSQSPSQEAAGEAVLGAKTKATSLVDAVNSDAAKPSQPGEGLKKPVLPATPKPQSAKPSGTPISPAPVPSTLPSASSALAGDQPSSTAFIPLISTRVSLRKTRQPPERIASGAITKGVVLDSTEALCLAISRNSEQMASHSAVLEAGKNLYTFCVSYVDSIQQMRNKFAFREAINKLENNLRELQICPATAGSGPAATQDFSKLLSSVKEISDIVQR
T7 sequence (Q15349 whole entry, the tested form may be a part): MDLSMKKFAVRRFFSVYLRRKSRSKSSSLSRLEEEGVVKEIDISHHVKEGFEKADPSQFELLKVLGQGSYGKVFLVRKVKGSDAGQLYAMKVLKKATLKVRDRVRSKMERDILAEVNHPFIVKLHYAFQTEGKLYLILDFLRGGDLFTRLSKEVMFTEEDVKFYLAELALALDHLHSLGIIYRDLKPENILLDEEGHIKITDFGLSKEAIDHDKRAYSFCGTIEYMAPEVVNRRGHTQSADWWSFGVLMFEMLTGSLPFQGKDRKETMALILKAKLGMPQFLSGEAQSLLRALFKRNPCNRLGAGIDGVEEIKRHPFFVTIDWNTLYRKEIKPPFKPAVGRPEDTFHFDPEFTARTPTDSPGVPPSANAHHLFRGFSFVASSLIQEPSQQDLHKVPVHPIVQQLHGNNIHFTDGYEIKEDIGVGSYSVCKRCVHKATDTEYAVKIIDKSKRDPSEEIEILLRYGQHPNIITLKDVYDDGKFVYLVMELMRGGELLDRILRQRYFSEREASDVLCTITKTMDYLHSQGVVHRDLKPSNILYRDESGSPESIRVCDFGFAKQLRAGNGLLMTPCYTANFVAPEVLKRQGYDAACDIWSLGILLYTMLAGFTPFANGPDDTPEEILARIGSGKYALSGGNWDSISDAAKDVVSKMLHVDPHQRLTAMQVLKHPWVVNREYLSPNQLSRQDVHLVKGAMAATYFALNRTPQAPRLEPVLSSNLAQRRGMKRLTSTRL
Hepatocyte growth factor receptor (Homo sapiens), sequence (P08581 whole entry): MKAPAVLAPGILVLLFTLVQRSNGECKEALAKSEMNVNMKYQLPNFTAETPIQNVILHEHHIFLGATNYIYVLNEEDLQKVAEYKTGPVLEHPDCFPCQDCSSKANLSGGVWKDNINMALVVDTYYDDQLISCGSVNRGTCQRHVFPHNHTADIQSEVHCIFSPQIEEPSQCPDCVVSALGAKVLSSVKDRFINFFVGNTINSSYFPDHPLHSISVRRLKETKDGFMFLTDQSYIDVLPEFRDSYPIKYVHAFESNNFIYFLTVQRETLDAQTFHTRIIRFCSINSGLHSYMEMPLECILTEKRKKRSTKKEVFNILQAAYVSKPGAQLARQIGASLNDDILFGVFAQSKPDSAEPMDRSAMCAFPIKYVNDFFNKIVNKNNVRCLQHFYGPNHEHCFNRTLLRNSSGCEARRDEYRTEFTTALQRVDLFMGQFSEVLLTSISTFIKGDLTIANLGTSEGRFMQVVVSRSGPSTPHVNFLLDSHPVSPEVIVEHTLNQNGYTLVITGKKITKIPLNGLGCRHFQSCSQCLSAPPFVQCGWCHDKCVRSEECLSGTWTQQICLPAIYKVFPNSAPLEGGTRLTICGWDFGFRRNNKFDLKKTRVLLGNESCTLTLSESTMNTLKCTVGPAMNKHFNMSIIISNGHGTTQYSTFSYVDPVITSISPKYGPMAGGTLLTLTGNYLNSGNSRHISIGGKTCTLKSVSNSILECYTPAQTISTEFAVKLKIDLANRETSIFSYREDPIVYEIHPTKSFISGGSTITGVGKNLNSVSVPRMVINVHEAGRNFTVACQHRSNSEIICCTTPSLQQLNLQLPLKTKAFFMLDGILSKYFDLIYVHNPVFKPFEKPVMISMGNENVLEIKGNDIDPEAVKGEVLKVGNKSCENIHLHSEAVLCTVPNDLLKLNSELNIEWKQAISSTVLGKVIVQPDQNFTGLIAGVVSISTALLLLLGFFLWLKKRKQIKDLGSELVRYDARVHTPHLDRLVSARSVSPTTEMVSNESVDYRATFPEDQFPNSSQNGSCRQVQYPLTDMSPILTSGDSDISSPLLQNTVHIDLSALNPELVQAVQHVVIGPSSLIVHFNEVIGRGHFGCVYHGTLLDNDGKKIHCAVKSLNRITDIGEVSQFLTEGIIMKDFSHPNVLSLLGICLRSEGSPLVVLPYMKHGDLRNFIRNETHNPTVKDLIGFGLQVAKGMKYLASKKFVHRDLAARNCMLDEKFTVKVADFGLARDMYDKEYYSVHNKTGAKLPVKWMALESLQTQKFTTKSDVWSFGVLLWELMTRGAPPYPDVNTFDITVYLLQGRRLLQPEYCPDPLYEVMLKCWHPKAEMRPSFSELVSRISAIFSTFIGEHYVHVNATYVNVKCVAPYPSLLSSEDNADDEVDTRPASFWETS

SMILES | deltaTm [1] [K] | deltaTm [2] [K] | IC50 [3] [µM] | IC50 [4] [µM] | IC50 [5] [µM] | IC50 [6] [µM] | deltaTm [7] [K] | deltaTm (Homo sapiens) [K] | further results
O=C(NCCCN1CCCC1=O)c1cnc(NCc2ccc(Cl)cc2Cl)nc1NC1CCCC1 | 2.1 | 0.1 | > 10 | > 10 | > 10 | > 10 | 2.3 | 0 | –
O=C(NCCCN1CCCC1=O)c1cnc(NCc2cc(F)ccc2F)nc1NC1CCCC1 | 5.9 | 0.6 | – | 4.48 | – | – | 6.1 | 0.3 | –
CCN(Cc1ccc(Cl)cc1)c1ncc(C(=O)NCCCN2CCCC2=O)c(NC2CCCC2)n1 | – | – | > 10 | > 10 | > 10 | > 10 | – | – | Activity (P19 [8]): inactive; Activity (P19 [9]): inactive; Activity (P19 [10]): inactive
CCN(Cc1ccccc1)c1ncc(C(=O)NCCCN2CCCC2=O)c(NC2CCCC2)n1 | – | – | > 10 | – | – | – | – | – | –

Further compounds by falling IC50 [3], results first:

deltaTm [1] [K] | deltaTm [2] [K] | IC50 [3] [µM] | IC50 [4] [µM] | IC50 [5] [µM] | IC50 [6] [µM] | deltaTm [7] [K] | SMILES | deltaTm (Homo sapiens) [K] | further results
3.8 | -0.5 | 8.73 | > 10 | > 10 | > 10 | 8.4 | Cc1cc(Br)c(CNc2ncc(C(=O)NCCCN3CCOC3=O)c(NC3CCCCC3)n2)cc1Br | 0.1 | IC50 [24]: 22.1 µM
5.6 | -0.2 | 0.7 | > 10 | – | > 10 | 8.6 | O=C(NCCCN1CCOC1=O)c1cnc(NCc2cc(Cl)ccc2Cl)nc1NC1CCCC1 | 0.2 | Activity [11]: 76%; Activity [12]: 75%; Activity [13]: 73%; Activity [14]: 67%; Activity [15]: 63%; Activity [16]: 63%; Activity [17]: 61%; Kd [18]: 0.77 µM; Kd [19]: 0.57 µM; Kd [20]: 0.74 µM; Kd [21]: 1.3 µM; Kd [22]: 0.69 µM; deltaTm [23]: 0.2 K; Ki [3]: 0.12 µM
